Experimental data reported in ChEMBL document CHEMBL3046745, “Sensitivity of Cucumber Powdery Mildew Fungus (Sphaerotheca fuliginea) to Several Fungicides” (J Pestic Sci, 1991).

Legend:
Podosphaera fuliginea [1] = test: Resistant ratio, ratio of EC50 for Podosphaera fuliginea isolate N-2 to EC50 for Podosphaera fuliginea isolate K-7; format: functional
Podosphaera fuliginea [2] = test: Resistant ratio, ratio of EC50 for Podosphaera fuliginea isolate N-1 to EC50 for Podosphaera fuliginea isolate K-7; format: functional
Podosphaera fuliginea [3] = test: Resistant ratio, ratio of EC50 for Podosphaera fuliginea isolate S-2 to EC50 for Podosphaera fuliginea isolate K-7; format: functional
Podosphaera fuliginea [4] = test: Antifungal activity against Podosphaera fuliginea isolate K-7 in cucumber plants assessed as percentage of infected leaf area at 125 ppm treated 3 times at 7-day interval by foliar spray test; format: functional
Podosphaera fuliginea [5] = test: Antifungal activity against Podosphaera fuliginea isolate N-2 in cucumber plants assessed as percentage of infected leaf area at 125 ppm treated 3 times at 7-day interval by foliar spray test; format: functional
Podosphaera fuliginea [6] = test: Antifungal activity against Podosphaera fuliginea isolate N-1 in cucumber plants assessed as percentage of infected leaf area at 125 ppm treated 3 times at 7-day interval by foliar spray test; format: functional
Podosphaera fuliginea [7] = test: Antifungal activity against Podosphaera fuliginea isolate S-2 in cucumber plants assessed as percentage of infected leaf area at 125 ppm treated 3 times at 7-day interval by foliar spray test; format: functional
Podosphaera fuliginea [8] = test: Antifungal activity against Podosphaera fuliginea isolate K-7 in cucumber plants by leaf disc method; format: functional, organism-based
Podosphaera fuliginea [9] = test: Antifungal activity against Podosphaera fuliginea isolate N-2 in cucumber plants by leaf disc method; format: functional, organism-based
Podosphaera fuliginea [10] = test: Antifungal activity against Podosphaera fuliginea isolate N-1 in cucumber plants by leaf disc method; format: functional, organism-based
Podosphaera fuliginea [11] = test: Antifungal activity against Podosphaera fuliginea isolate S-2 in cucumber plants by leaf disc method; format: functional, organism-based
Podosphaera fuliginea [12] = test: Antifungal activity against Podosphaera fuliginea isolate K-7 in cucumber plants assessed as percentage of infected leaf area at 466.7 ppm treated 3 times at 7-day interval by foliar spray test; format: functional
Podosphaera fuliginea [13] = test: Antifungal activity against Podosphaera fuliginea isolate N-2 in cucumber plants assessed as percentage of infected leaf area at 466.7 ppm treated 3 times at 7-day interval by foliar spray test; format: functional
Podosphaera fuliginea [14] = test: Antifungal activity against Podosphaera fuliginea isolate N-1 in cucumber plants assessed as percentage of infected leaf area at 466.7 ppm treated 3 times at 7-day interval by foliar spray test; format: functional
Podosphaera fuliginea [15] = test: Antifungal activity against Podosphaera fuliginea isolate S-2 in cucumber plants assessed as percentage of infected leaf area at 466.7 ppm treated 3 times at 7-day interval by foliar spray test; format: functional
Podosphaera fuliginea [16] = test: Antifungal activity against Podosphaera fuliginea isolate K-7 in cucumber plants assessed as percentage of infected leaf area at 62.5 ppm treated 3 times at 7-day interval by foliar spray test; format: functional
Podosphaera fuliginea [17] = test: Antifungal activity against Podosphaera fuliginea isolate N-2 in cucumber plants assessed as percentage of infected leaf area at 62.5 ppm treated 3 times at 7-day interval by foliar spray test; format: functional
Podosphaera fuliginea [18] = test: Antifungal activity against Podosphaera fuliginea isolate N-1 in cucumber plants assessed as percentage of infected leaf area at 62.5 ppm treated 3 times at 7-day interval by foliar spray test; format: functional
Podosphaera fuliginea [19] = test: Antifungal activity against Podosphaera fuliginea isolate S-2 in cucumber plants assessed as percentage of infected leaf area at 62.5 ppm treated 3 times at 7-day interval by foliar spray test; format: functional
Podosphaera fuliginea [20] = test: Antifungal activity against Podosphaera fuliginea isolate K-7 in cucumber plants assessed as percentage of infected leaf area at 25 ppm treated 3 times at 7-day interval by foliar spray test; format: functional
Podosphaera fuliginea [21] = test: Antifungal activity against Podosphaera fuliginea isolate N-2 in cucumber plants assessed as percentage of infected leaf area at 25 ppm treated 3 times at 7-day interval by foliar spray test; format: functional
Podosphaera fuliginea [22] = test: Antifungal activity against Podosphaera fuliginea isolate N-1 in cucumber plants assessed as percentage of infected leaf area at 25 ppm treated 3 times at 7-day interval by foliar spray test; format: functional
Podosphaera fuliginea [23] = test: Antifungal activity against Podosphaera fuliginea isolate S-2 in cucumber plants assessed as percentage of infected leaf area at 25 ppm treated 3 times at 7-day interval by foliar spray test; format: functional

Structure (SMILES) | Ratio EC50 (Podosphaera fuliginea [1]) | Ratio EC50 (Podosphaera fuliginea [2]) | Ratio EC50 (Podosphaera fuliginea [3]) | EC50 (Podosphaera fuliginea [8]) | EC50 (Podosphaera fuliginea [9]) [ppm] | EC50 (Podosphaera fuliginea [10]) | EC50 (Podosphaera fuliginea [11]) | further results
Cc1ccc2nc3sc(=O)sc3nc2c1 [CHINOMETHIONAT] | 2.6 | 3.8 | 3.9 | 1.27 ppm | 3.35 | 4.83 ppm | 4.95 ppm | Activity (Podosphaera fuliginea [4]): 96.5%; Activity (Podosphaera fuliginea [5]): 94.9%; Activity (Podosphaera fuliginea [6]): 91.1%; Activity (Podosphaera fuliginea [7]): 91.3%
COC(=O)NC(=S)Nc1ccccc1NC(=S)NC(=O)OC [THIOPHANATE METHYL] | 26531.4 | 25092.3 | 17675.3 | 2.71 ×10⁻² ppm | 719 | 680 ppm | 479 ppm | Activity (Podosphaera fuliginea [12]): 97.8%; Activity (Podosphaera fuliginea [13]): 11.9%; Activity (Podosphaera fuliginea [14]): 5.1%; Activity (Podosphaera fuliginea [15]): 0%
CCCCc1c(C)nc(N(C)C)nc1O [DIMETHIRIMOL] | 218.6 | 223.7 | 157.3 | 2.95 ×10⁻² ppm | 6.45 | 6.6 ppm | 4.64 ppm | Activity (Podosphaera fuliginea [16]): 98.8%; Activity (Podosphaera fuliginea [17]): 47.4%; Activity (Podosphaera fuliginea [18]): 49.4%; Activity (Podosphaera fuliginea [19]): 55.2%
CC(C)(C)C(=O)C(Oc1ccc(Cl)cc1)n1cncn1 (centres undefined) [TRIADIMEFON] | 553.4 | 94.4 | 1.8 | 1.03 ×10⁻² ppm | 5.7 | 9.72 ×10⁻¹ ppm | 1.82 ×10⁻² ppm | Activity (Podosphaera fuliginea [20]): 98.8%; Activity (Podosphaera fuliginea [21]): 45.8%; Activity (Podosphaera fuliginea [22]): 76%; Activity (Podosphaera fuliginea [23]): 100%
